Test results: the NIST ThermoML archive (doi:10.1021/je200808q)

Experiment: mn = molality of the nth substance listed, in mol/kg
Conditions: Liquid, Taylor dispersion method

[Cl-].[K+] [potassium chloride] + O
Conditions	binary diffusion coefficient [m2/s]
348.15 K, 31120 kPa, m1 = 1	4.26e-09
348.15 K, 32970 kPa, m1 = 4.5	4.62e-09
348.15 K, 35870 kPa, m1 = 1	4.24e-09
348.15 K, 39760 kPa, m1 = 1	4.23e-09
348.15 K, 41210 kPa, m1 = 1	4.25e-09
348.15 K, 41980 kPa, m1 = 1	4.25e-09
348.15 K, 45150 kPa, m1 = 2.5	4.58e-09
348.15 K, 45330 kPa, m1 = 1	4.26e-09
348.15 K, 46780 kPa, m1 = 0	4.49e-09
348.15 K, 62420 kPa, m1 = 1	4.24e-09
348.15 K, 64020 kPa, m1 = 1	4.25e-09
348.15 K, 65910 kPa, m1 = 4.5	4.63e-09
348.15 K, 66700 kPa, m1 = 0	4.52e-09
348.15 K, 67090 kPa, m1 = 1	4.25e-09
348.15 K, 68900 kPa, m1 = 2.5	4.59e-09
373.15 K, 740 kPa, m1 = 4.5	6.25e-09
373.15 K, 820 kPa, m1 = 0	6.11e-09
373.15 K, 820 kPa, m1 = 1	5.94e-09
373.15 K, 940 kPa, m1 = 2.5	5.92e-09
373.15 K, 17140 kPa, m1 = 2.5	5.92e-09
373.15 K, 17780 kPa, m1 = 4.5	6.22e-09
373.15 K, 23410 kPa, m1 = 1	5.93e-09
373.15 K, 24180 kPa, m1 = 0	6.14e-09
373.15 K, 24360 kPa, m1 = 2.5	5.94e-09
373.15 K, 31320 kPa, m1 = 2.5	5.89e-09
373.15 K, 41280 kPa, m1 = 4.5	6.24e-09
373.15 K, 42090 kPa, m1 = 1	5.94e-09
373.15 K, 43130 kPa, m1 = 0	6.11e-09
373.15 K, 47550 kPa, m1 = 2.5	5.98e-09
373.15 K, 47900 kPa, m1 = 4.5	6.21e-09
373.15 K, 54290 kPa, m1 = 4.5	6.24e-09
373.15 K, 54410 kPa, m1 = 4.5	6.24e-09
373.15 K, 57260 kPa, m1 = 2.5	5.86e-09
373.15 K, 59590 kPa, m1 = 2.5	5.96e-09
373.15 K, 63050 kPa, m1 = 2.5	5.96e-09
373.15 K, 64210 kPa, m1 = 1	5.97e-09
373.15 K, 64280 kPa, m1 = 0	6.18e-09
373.15 K, 65700 kPa, m1 = 4.5	6.27e-09
423.15 K, 3080 kPa, m1 = 0	1.03e-08
423.15 K, 3410 kPa, m1 = 1	9.43e-09
423.15 K, 4440 kPa, m1 = 2.5	9.69e-09
423.15 K, 13020 kPa, m1 = 4.5	9.27e-09
423.15 K, 15130 kPa, m1 = 1	9.45e-09
423.15 K, 15180 kPa, m1 = 2.5	9.67e-09
423.15 K, 15260 kPa, m1 = 2.5	9.68e-09
423.15 K, 18510 kPa, m1 = 0	1.03e-08
423.15 K, 33580 kPa, m1 = 0	1.03e-08
423.15 K, 34630 kPa, m1 = 2.5	9.7e-09
423.15 K, 34720 kPa, m1 = 1	9.45e-09
423.15 K, 40540 kPa, m1 = 4.5	9.29e-09
423.15 K, 56030 kPa, m1 = 2.5	9.7e-09
423.15 K, 61620 kPa, m1 = 1	9.48e-09
423.15 K, 63300 kPa, m1 = 0	1.03e-08
423.15 K, 65050 kPa, m1 = 2.5	9.72e-09
423.15 K, 65640 kPa, m1 = 1	9.49e-09
423.15 K, 68930 kPa, m1 = 4.5	9.3e-09
